From patent publication US10732174B2, “Three dimensional tissues for high-throughput assays” (INVIVOSCIENCES, INC., priority 2008, dated 2020)
Entries after “also recorded” stand apart in the source; their conditions may differ. Where two headings read alike, the source gives them in different places. One block for each compound: values may come before it.

Columns and labels:
REF-52 cells = conditions: for cytotoxicity signs in cell monolayers (confluency, nuclei, shrinkage): 24 hours; for F-actin morphology in cells, microscopy: REF monolayers, 3 hr and 24 hr
Protocol: REF-52 cells were plated on 35 mm culture dishes (50,000 cells) in 10% FBS medium (2 ml). Cells are incubated over night and then treated with compounds. […] Cells were incubated with drugs for 24 hours prior to fixing. To fix, treated cells were rinsed once with 2 ml of phosphate buffered saline (PBS, D5652) and then incubated in 1 ml of 4% paraformaldehyde (Sigma) solution (in PBS) for 30 min. Fixed cells are rinsed twice and then stored in 2 ml of PBS.
Fixed REF-52 cells were permeabilized by incubating in 1 ml of 0.1% Triton (BP151, Fisher Scientific) solution (in PBS) for 15 min. Permeabilized cells were rinsed twice with 1 ml TBST buffer and then blocked with 1 ml of 5% goat serum in TBST for 1 hour. One milliliter of 1:200 diluted Alexa 568 conjugated phalloidin (A12380, Invitrogen) in TBST with 2% goat serum was then added to the cells. This staining solution also contained 400 nM of DAPI (D9564). Cells were stained for 30 min and then rinsed twice with TBST. Labeled cells were mounted with Vectashield (Vector Laboratories, Burlingame, Calif.), covered with a cover slide and then sealed with nail polish. The plate was then inverted on to a Leica SP5 confocal microscope (Leica Microsystems, Bannockburn, Ill.) and imaged with 63× water immersion objective. Alexa 568 was excited using the 543 laser line and DAPI was excited using a MaiTai multi-photon laser.

[1] = system: hydrogel tissue constructs (HTCs) of REF-52 cells; assay: HTC force measurement (Palpator); type: cell-based, rat; conditions: for effect on tissue (HTC contractile) force, in words: 3 and 24 hr
Protocol: Rat embryonic fibroblasts (REF-52) were cultured in Dulbecco's Modified Eagle's Medium (DMEM, MT10013CM, Fisher Scientific, Pittsburgh, Pa.) supplemented with 10% fetal bovine serum (FBS, S11050, Atlanta Biologicals, Lawrenceville, Ga.). Cells were sub-cultured every two to three days. To make hydrogel tissue constructs (HTCs), REF-52 cells (between passages 40 to 70) were dissociated from culture plates by treating with 0.05% trypsin (MT-25-025-CI, Fisher Scientific) for 10 to 15 min. The cells were then centrifuged at 1000 g for 10 min. The trypsin solution was decanted and the cell pellet was re-suspended in 10% FBS DMEM medium. This cell suspension was diluted in HTC tissue solution to achieve a final concentration of 8×10^5 cells per ml. The HTC tissue solution consisted of 10% FBS DMEM, 1 mg/ml of type 1 collagen (354249, BD Biosciences, San Jose, Calif.) in 0.02 N acetic acid, sufficient sodium hydroxide to neutralize the acid in the collagen, and sufficient 5×DMEM to compensate for the volume of collagen and NaOH. To prevent premature collagen polymerization, the HTC tissue solution was kept on ice until its distribution into our custom-made tissue molds (FIG. 3). Each mold contains 8 separate HTC-forming wells with two built-in horizontal support bars. Three hundred microliters of the HTC tissue solution was aliquoted into each well in these molds and then incubated for 30 min at 37° C. and 5% CO2. After the incubation period, […] of 10% FBS DMEM medium was added to each well and the molds were further incubated for 48 hr. In this time, the solution contracted to form HTCs that span the support bars in the wells.
The Palpator™ (as described in U.S. Pat. No. 7,449,306, which is incorporated herein by reference in its entirety) was used to quantify the contractility of the HTCs. The molds were placed on the stage of the Palpator™ which automatically inserted a probe into each well and stretched the individual HTC. The probe was connected to a force transducer which measured the resistance force induced in the HTC in response to stretch and exported the values to a computer for recording. A custom Matlab algorithm was used to process and analyze the force data to report a numerical parameter that is indicative of the active cell force in the HTC. To obtain stable measurements of the HTC contractile force, it was necessary to precondition the HTCs by stretching three times prior to actual force measurement. Preconditioning was not necessary if subsequent force measurements were within 30 min of the previous stretch. HTCs at 24 hr post treatment were always pre-conditioned before force measurement.

HTCs of REF-52 cells = system: HTCs of REF-52 cells
Protocol: 3-(4,5-dimethylthiazol-2-yl)-2,5-diphenyltetrazolium (MTT, M-6494, Invitrogen) was used to quantify cell viability in the HTCs. At predetermined times following drug exposure, MTT was added to each well to achieve 0.5 mg/ml. MTT was left in the wells for 2 hr and then removed. The formazan dye that forms in the cells were then suspended in 500 μl of isopropanol (S77795, Fisher Scientific) containing 0.1 N hydrochloric acid. Two hundred microliters of the formazan solution is then put into a 96-well plate well and read on the Synergy HT plate reader. Absorbance at 570 and 650 nm were recorded and the difference (A570-A650) was used as the absorbance intensity of the formazan.
All chemicals are from Sigma (Sigma-Alrich, St. Louis, Mo.) unless otherwise noted. […] DNP was diluted to 1 M in DMSO and then to 100, 10, and 1 mM in -F/G/P DMEM. Following HTC preconditioning and background force (i.e. pre-drug) measurement, 50 μl of the appropriate drug dilutions were added to each well to achieve the desired treatment concentration. Fifty microliters of -F/G/P DMEM was added to the control wells. Upon drug addition, medium in the wells was mixed by pipetting four times.
Finally to measure the compounds' effects on cellular viability, the assay using 3-(4,5-Dimethylthiazol-2-yl)-2,5-diphenyltetrazolium bromide (MTT) was performed. In cells, the yellow MTT is converted to a purple colored formazan by succinate dehydrogenase and this change can be quantified by light absorbance between 500-600 nm was quantitatively recorded using the plate reader.

[2] = system: F-actin in HTCs of REF-52 cells; assay: F-actin content of HTCs, Alexa-phalloidin, plate reader; type: cell-based, rat; conditions: HTC treated 24 hours
Description: FIG. 5A-FIG. 5W. FIG. 5A is a photograph of The Palpator™. The system includes an isometric force transducer (a), probe baths (b), and a hydrogel tissue construct (HTC) stage (c) on a temperature regulator plate (d). FIG. 5B is a photograph showing the x-y-z motion robotic arm which positions the force transducer with attached probe above the HTCs and lowers the probe onto the tissue for force measurement. FIG. 5C is a schematic of the robotic arm with attached force transducer and probe. FIG. 5D is a photograph of the probe positioned 1 mm above the mid-plane of a HTC (a) and then lowered until it first touches (b) and then stretches (c) the tissue. FIG. 5E is a graph showing representative forces recorded during HTC indentation. Arrows a, b, and c show force measurements associated with probe positions shown in (D). […] HTCs were preconditioned, then treated with varying concentrations of the four drugs as indicated. Forces were measured at 3 (f) and 24 hr (g). Force measurements were expressed relative to control, medium treated, HTCs (Fc). […] HTCs treated with drugs for 24 hours were fixed and labeled with Alexa 568 conjugated phalloidin. Fluorescence intensity was read on a plate reader and plotted relative to control, media treated, HTCs (Ic). […] At 3 hr (i-m) and 24 hr (n-r, s-w) post treatment, representative monolayers were fixed and stained with Alexa 568 conjugated phalloidin and DAPI. […] Note the larger scale bar in (g) and (l). Images were captured on a Leica SP5 confocal microscope using a water-immersion 63× objective, scale bar=50 μm.
Tissue force is maintained through the integrity of the cellular cytoskeleton, especially actin and myosin. To quantify amount of F (filamentous)-actin in the HTCs treated with the compounds, the HTCs were stained with Alexa […] conjugated phalloidin. […] This is in agreement with our previous report that CD mediated reduction in tissue force was due to the loss of intact F-actin. However, force reductions by H1152 and DNP were not related to the loss of F-actin. […] By 24 hours, short F-actins were re-distributed within less-spread (FIG. 5O) and binuclear (FIG. 5T) cells.

[3] = system: human epidermoid cell lines; conditions: reported; cited from earlier work
[4] = system: mitochondrial membrane potential in HTCs of REF-52 cells; assay: HTC TMRE labeling, mitochondrial potential; type: cell-based, rat; conditions: for effect on mitochondrial potential, in words: HTC, TMRE; for EC50: Rattus norvegicus, read-out: EC50 of TMRE signal reduction (MMP uncoupling)
Protocol: The ethyl ester of tetramethylrhodamine (TMRE, T-669, Invitrogen, Carlsbad, Calif.) was used to quantify the mitochondrial potential of the HTCs. HTCs were incubated in 100 nM TMRE for 30 min and then in phenol red free 10% FBS DMEM for 60 min. Phenol red free medium was used to prevent interference with TMRE fluorescence reading. Following labeling, HTCs were preconditioned with three stretches and then prior to background force measurement. HTC TMRE signal was then read on a Synergy HT plate reader (Biotek Instruments, Winooski, Vt.). A custom made adapter plate was used to position the tissue molds on the plate-holding rack of the plate reader. Fluorescence signal was read from the bottom using the 543/590 excitation/emission filter set and a gain setting of 50. TMRE fluorescence intensity was also read following each force measurement at predetermined time points after drug treatments.
TMRE is cationic and accumulates in the mitochondria as a function of MMP. […] More detailed investigation of DNP's effect on TMRE accumulation using confocal microscopy improved signal detection in both monolayers and HTCs (FIG. 6C and FIG. 6D).

HepG2 cells = conditions: previously reported; cited from earlier work
[5] = HTC, 3 hr treatment, read-out: EC50 of tissue force reduction

Compound: C=C1[C@@H](C)[C@H]2[C@H](Cc3ccccc3)NC(=O)[C@]23[C@H](OC(C)=O)/C=C/[C@@](C)(O)C(=O)[C@@H](C)C/C=C/[C@H]3[C@@H]1O [CD, Cytochalasin D]
cytotoxicity signs in cell monolayers (confluency, nuclei, shrinkage) (REF-52 cells): cytotoxicity was evident
F-actin morphology in cells, microscopy (REF-52 cells): extensive actin depolymerization by 3 hr; also recorded: extensive disruption of F-actin as early as 3 hours
effect on tissue (HTC contractile) force, in words ([1]; HTC): dose-dependently reduced HTC contractile force; also recorded: dose-dependently reduced tissue force; also recorded: very effective at reducing HTC force
EC50 [1, 5]: ~0.1 µM
reduction of MTT signal (HTCs of REF-52 cells; 0.2 μM, 24 hours): 40%
reduction of MTT signal (HTCs of REF-52 cells; 2 μM, 24 hours): 40%
F-actin content of HTCs (Alexa-phalloidin intensity) [2]: significantly reduced
F-actin content of HTCs (Alexa-phalloidin intensity) ([2]; listed as Cytochalasin D): reduced cellular F-actin
LD50 [3]: 5 to 30 µM

Compound: O=[N+]([O-])c1ccc(O)c([N+](=O)[O-])c1 [DNP, 2,4-dinitrophenol]
cytotoxicity signs in cell monolayers (confluency, nuclei, shrinkage) (REF-52 cells): less than that of control
F-actin morphology in cells, microscopy (REF-52 cells): limited to no effects; also recorded: did not dramatically affect F-actin morphology
reduction in EC50 of effect on tissue force ([1]; 24 hr vs 3 hr): 65 fold
concentration needed to reduce tissue force relative to H-1152 or CD ([1]; HTC): ~10,000 fold
effect on tissue (HTC contractile) force, in words ([1]; HTC): dose-dependently reduced HTC contractile force; also recorded: also reduced tissue force; also recorded: very effective at reducing HTC force
EC50 ([1]; Rattus norvegicus, REF52, 3 h, read-out: EC50 of tissue force reduction): 1300 µM
EC50 ([1]; Rattus norvegicus, REF52, 24 h, read-out: EC50 of tissue force reduction): 20 µM
reduction in TMRE EC50 by 24 hours treatment ([4]; 24 hr vs 3 hr): 3.6 fold
effect on mitochondrial potential, in words [4]: dose-dependently uncoupled HTC mitochondrial potential; also recorded: extensive uncoupling effect
EC50 ([4]; REF52, 3 h): ~340 µM
EC50 ([4]; REF52, 24 h): ~95 µM
effect on HTC viability / MTT signal, in words (HTCs of REF-52 cells; 24 hours): did not affect MTT signal
F-actin content of HTCs (Alexa-phalloidin intensity) [2]: comparable to controls

Compound: C=C(C)[C@H]1Cc2c(ccc3c2O[C@@H]2COc4cc(OC)c(OC)cc4[C@@H]2C3=O)O1 [ROT, rotenone]
cytotoxicity signs in cell monolayers (confluency, nuclei, shrinkage) (REF-52 cells): cytotoxicity was evident; also recorded: less than that of control; also recorded: Noticeable nuclear fragmentation
F-actin morphology in cells, microscopy (REF-52 cells): limited to no effects; also recorded: did not dramatically affect F-actin morphology
effect on tissue (HTC contractile) force, in words ([1]; HTC): dose-dependently reduced HTC contractile force; also recorded: also reduced tissue force; also recorded: moderate negative impact
effect on mitochondrial potential, in words [4]: moderate negative impact
toxicity (HepG2 cells): 25%
reduction of MTT signal (HTCs of REF-52 cells; 10 μM, 24 hours): 40%
F-actin content of HTCs (Alexa-phalloidin intensity) [2]: inconclusive

Compound: Cc1cncc2cccc(S(=O)(=O)N3CCCNC[C@@H]3C)c12 [H-1152]
F-actin morphology in cells, microscopy (REF-52 cells; listed as RKI): did not dramatically affect F-actin morphology
F-actin morphology in cells, microscopy (REF-52 cells; listed as RKI1): limited to no effects
effect on tissue (HTC contractile) force, in words ([1]; HTC): dose-dependently reduced tissue force
effect on tissue (HTC contractile) force, in words ([1]; HTC, listed as RKI): very effective at reducing HTC force
effect on tissue (HTC contractile) force, in words ([1]; HTC, listed as RKI1): dose-dependently reduced HTC contractile force; also recorded: effectively reduced tissue force
EC50 [1, 5]: ~0.1 µM
EC50 ([1]; HTC, time not stated at place, read-out: force-reducing EC50): 0.1 µM
effect on mitochondrial potential, in words ([4]; listed as RKI): limited mitochondrial and viability toxicity
effect on mitochondrial potential, in words ([4]; listed as RKI1): minimal uncoupling activity
F-actin content of HTCs (Alexa-phalloidin intensity) [2]: comparable to controls

formazan absorbance relative to control (A/Ac) (HTCs of REF-52 cells; rat, 24 h, 10 %): 0.11±9×10^−3
Compound: C[S+](C)[O-] [DMSO, dimethyl sulfoxide]
